Source: US6403589B1, “Method of treating pain with draflazine-analogues” (Janssen Pharmaceutica N.V., priority 1997, dated 2002)
Blank lines part the entries; values can stand above or below the molecule they belong to.

Tests used:
[1] = system: patients with unstable angina; conditions: during the 24 hour observation period; draflazine treated patients with unstable angina; cited from earlier work
rabbits = conditions: acute pain stimulus; cited from earlier work
dogs = conditions: acute pain stimulus; cited from earlier work
mice = conditions: acute pain stimulus; cited from earlier work

Structure (SMILES): NC(=O)[C@@H]1CN(CCCCC(c2ccc(F)cc2)c2ccc(F)cc2)CCN1CC(=O)Nc1c(Cl)cc(N)cc1Cl [Compound 13, S-(−)-2-(aminocarbonyl)-N-(4-amino-2,6-dichlorophenyl)-4-[5,5-bis(4-fluorophenyl)-pentyl]-1-piperazineacetamide]
mean duration of chest pain [1]: 75.5 min

Structure (SMILES): Cc1cccc(C)c1NC(=O)CN1CCN(CCCC(c2ccc(F)cc2)c2ccc(F)cc2)CC1 [lidoflazine]
pain treshold to electrical stimulation of incisor teeth (rabbits): increased | pain treshold to electrical stimulation of canine teeth (dogs): not | reaction time to thermal stimulation (mice): significantly increased

Results, then the molecule that gave them:

melting point: 140 °C
Structure (SMILES): CNC(=O)C1CN(CC(=O)Nc2c(Cl)cccc2C(C)=O)CCN1CCCC=C(c1ccc(F)cc1)c1ccc(F)cc1.O=C(O)C(=O)O.O=C(O)C(=O)O (racemic) [Compound 18, (±)-N-(2-acetyl-6-chlorophenyl)-4-[5,5-bis(4-fluorophenyl)-4-pentenyl]-3-[(methylamino)carbonyl]-1-piperazineacetamide ethanedioate (1:2)]

melting point: 82.3 °C
Structure (SMILES): CNC(=O)C1CN(CC(=O)Nc2c(C)cc(C)cc2C)CCN1CCCC(c1ccc(F)cc1)c1ccc(F)cc1 (stereo not shown) [Compound 1, 4-[4,4-bis(4-fluorophenyl)butyl]-3-[(methylamino)-carbonyl]-N-(2,4,6-trimethylphenyl)-1-piperazineacetamide]

melting point: 90.2 °C
Structure (SMILES): CNC(=O)C1CN(CCCC(c2ccc(F)cc2)c2ccc(F)cc2)CCN1CC(=O)Nc1c(C)cc(C)cc1C (stereo not shown) [Compound 2, 4-[4,4-bis(4-fluorophenyl)butyl]-2-[(methylamino)carbonyl]-N-(2,4,6-trimethylphenyl)-1-piperazineacetamide]
